# In PubChem BioAssay (NCI):
#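 Assay format: 96-well plates, 48-hour exposure. TGI denotes the concentration required for complete inhibition of growth.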
# How the values were obtained:
# Assay in all cases: NCI-60 cell line screen, 48 h
# HCT-15 colon = test system: HCT-15 colon
# HOP-92 NSCLC = test system: HOP-92 NSCLC
# SK-MEL-5 melanoma = test system: SK-MEL-5 melanoma
# SK-OV-3 ovarian = test system: SK-OV-3 ovarian
# SNB-75 CNS = test system: SNB-75 CNS
# RPMI-8226 leukemia = test system: RPMI-8226 leukemia
# IGROV1 ovarian = test system: IGROV1 ovarian
# HOP-62 NSCLC = test system: HOP-62 NSCLC
# MDA-N = test system: MDA-N
# CAKI-1 renal = test system: CAKI-1 renal
# HCC-2998 colon = test system: HCC-2998 colon
# T-47D breast = test system: T-47D breast
# SK-MEL-28 melanoma = test system: SK-MEL-28 melanoma
# HL-60(TB) leukemia = test system: HL-60(TB) leukemia
# SNB-19 CNS = test system: SNB-19 CNS
# OVCAR-3 ovarian = test system: OVCAR-3 ovarian
# SN12C renal = test system: SN12C renal
# UACC-62 melanoma = test system: UACC-62 melanoma
# SF-268 CNS = test system: SF-268 CNS
# BT-549 breast = test system: BT-549 breast
# NCI-H226 lung = test system: NCI-H226 lung
# KM12 colon = test system: KM12 colon
# UO-31 renal = test system: UO-31 renal
# PC-3 prostate = test system: PC-3 prostate
# MDA-MB-435 = test system: MDA-MB-435
# EKVX NSCLC = test system: EKVX NSCLC
# ACHN renal = test system: ACHN renal
# SF-295 CNS = test system: SF-295 CNS
# NCI/ADR-RES ovarian = test system: NCI/ADR-RES ovarian
# DU-145 prostate = test system: DU-145 prostate
# MCF7 breast = test system: MCF7 breast
# CCRF-CEM leukemia = test system: CCRF-CEM leukemia
# UACC-257 melanoma = test system: UACC-257 melanoma
# SK-MEL-2 melanoma = test system: SK-MEL-2 melanoma
# OVCAR-5 ovarian = test system: OVCAR-5 ovarian
# TK-10 renal = test system: TK-10 renal
# RXF 393 renal = test system: RXF 393 renal
# OVCAR-4 ovarian = test system: OVCAR-4 ovarian
# LOX IMVI melanoma = test system: LOX IMVI melanoma
# U251 CNS = test system: U251 CNS
# HS 578T breast = test system: HS 578T breast
# HT29 colon = test system: HT29 colon
# K-562 leukemia = test system: K-562 leukemia
# MALME-3M melanoma = test system: MALME-3M melanoma
# SF-539 CNS = test system: SF-539 CNS
# A498 renal = test system: A498 renal
# SR leukemia = test system: SR leukemia
# COLO 205 colon = test system: COLO 205 colon
# MOLT-4 leukemia = test system: MOLT-4 leukemia
# NCI-H522 lung = test system: NCI-H522 lung
# NCI-H460 lung = test system: NCI-H460 lung
# HCT-116 colon = test system: HCT-116 colon
# OVCAR-8 ovarian = test system: OVCAR-8 ovarian
# A549 NSCLC = test system: A549 NSCLC
# M14 melanoma = test system: M14 melanoma
# NCI-H23 lung = test system: NCI-H23 lung
# SW-620 colon = test system: SW-620 colon
# 786-0 renal = test system: 786-0 renal
# MDA-MB-231 breast = test system: MDA-MB-231 breast
structure (smiles),measurement,setting,value
O=C1CC(=O)c2c(N3CCCC3)sc(N3CCCC3)c21,TGI,HCT-15 colon,> 100 µM
same,TGI,HOP-92 NSCLC,> 100 µM
same,TGI,SK-MEL-5 melanoma,> 100 µM
same,TGI,SK-OV-3 ovarian,> 100 µM
same,TGI,SNB-75 CNS,> 100 µM
same,TGI,RPMI-8226 leukemia,> 100 µM
same,TGI,IGROV1 ovarian,> 100 µM
same,TGI,HOP-62 NSCLC,> 100 µM
same,TGI,MDA-N,> 100 µM
same,TGI,CAKI-1 renal,> 100 µM
same,TGI,HCC-2998 colon,> 100 µM
same,TGI,T-47D breast,> 100 µM
same,TGI,SK-MEL-28 melanoma,> 100 µM
same,TGI,HL-60(TB) leukemia,> 100 µM
same,TGI,SNB-19 CNS,> 100 µM
same,TGI,OVCAR-3 ovarian,> 100 µM
same,TGI,SN12C renal,> 100 µM
same,TGI,UACC-62 melanoma,> 100 µM
same,TGI,SF-268 CNS,> 100 µM
same,TGI,BT-549 breast,> 100 µM
same,TGI,NCI-H226 lung,> 100 µM
same,TGI,KM12 colon,> 100 µM
same,TGI,UO-31 renal,> 100 µM
same,TGI,PC-3 prostate,> 100 µM
same,TGI,MDA-MB-435,> 100 µM
same,TGI,EKVX NSCLC,> 100 µM
same,TGI,ACHN renal,> 100 µM
same,TGI,SF-295 CNS,> 100 µM
same,TGI,NCI/ADR-RES ovarian,> 100 µM
same,TGI,DU-145 prostate,> 100 µM
same,TGI,MCF7 breast,> 100 µM
same,TGI,CCRF-CEM leukemia,> 100 µM
same,TGI,UACC-257 melanoma,> 100 µM
same,TGI,SK-MEL-2 melanoma,> 100 µM
same,TGI,OVCAR-5 ovarian,> 100 µM
same,TGI,TK-10 renal,> 100 µM
same,TGI,RXF 393 renal,> 100 µM
same,TGI,OVCAR-4 ovarian,> 100 µM
same,TGI,LOX IMVI melanoma,> 100 µM
same,TGI,U251 CNS,> 100 µM
same,TGI,HS 578T breast,> 100 µM
same,TGI,HT29 colon,> 100 µM
same,TGI,K-562 leukemia,> 100 µM
same,TGI,MALME-3M melanoma,> 100 µM
same,TGI,SF-539 CNS,> 100 µM
same,TGI,A498 renal,> 100 µM
same,TGI,SR leukemia,> 100 µM
same,TGI,COLO 205 colon,> 100 µM
same,TGI,MOLT-4 leukemia,> 100 µM
same,TGI,NCI-H522 lung,> 100 µM
same,TGI,NCI-H460 lung,> 100 µM
same,TGI,HCT-116 colon,> 100 µM
same,TGI,OVCAR-8 ovarian,> 100 µM
same,TGI,A549 NSCLC,> 100 µM
same,TGI,M14 melanoma,> 100 µM
same,TGI,NCI-H23 lung,> 100 µM
same,TGI,SW-620 colon,> 100 µM
same,TGI,786-0 renal,> 100 µM
CC1(C)OC(C(C)(C)O)C(C(C)(C)O)O1 (centres undefined),TGI,HCT-15 colon,> 100 µM
same,TGI,SK-MEL-5 melanoma,> 100 µM
same,TGI,SK-OV-3 ovarian,> 100 µM
same,TGI,SNB-75 CNS,> 100 µM
same,TGI,RPMI-8226 leukemia,> 100 µM
same,TGI,IGROV1 ovarian,> 100 µM
same,TGI,HOP-62 NSCLC,> 100 µM
same,TGI,MDA-N,> 100 µM
same,TGI,CAKI-1 renal,> 100 µM
same,TGI,HCC-2998 colon,> 100 µM
same,TGI,T-47D breast,> 100 µM
same,TGI,SK-MEL-28 melanoma,> 100 µM
same,TGI,HL-60(TB) leukemia,> 100 µM
same,TGI,SNB-19 CNS,> 100 µM
same,TGI,SN12C renal,> 100 µM
same,TGI,UACC-62 melanoma,> 100 µM
same,TGI,SF-268 CNS,> 100 µM
same,TGI,BT-549 breast,> 100 µM
same,TGI,MDA-MB-231 breast,> 100 µM
same,TGI,NCI-H226 lung,> 100 µM
same,TGI,KM12 colon,> 100 µM
same,TGI,UO-31 renal,> 100 µM
same,TGI,PC-3 prostate,> 100 µM
same,TGI,EKVX NSCLC,> 100 µM
same,TGI,ACHN renal,> 100 µM
same,TGI,SF-295 CNS,> 100 µM
same,TGI,NCI/ADR-RES ovarian,> 100 µM
same,TGI,DU-145 prostate,> 100 µM
same,TGI,MCF7 breast,> 100 µM
same,TGI,CCRF-CEM leukemia,> 100 µM
same,TGI,UACC-257 melanoma,> 100 µM
same,TGI,SK-MEL-2 melanoma,> 100 µM
same,TGI,OVCAR-5 ovarian,> 100 µM
same,TGI,TK-10 renal,> 100 µM
same,TGI,RXF 393 renal,> 100 µM
same,TGI,OVCAR-4 ovarian,> 100 µM
same,TGI,LOX IMVI melanoma,> 100 µM
same,TGI,U251 CNS,> 100 µM
same,TGI,HS 578T breast,> 100 µM
same,TGI,HT29 colon,> 100 µM
same,TGI,K-562 leukemia,> 100 µM
same,TGI,MALME-3M melanoma,> 100 µM
same,TGI,SF-539 CNS,> 100 µM
same,TGI,SR leukemia,> 100 µM
same,TGI,COLO 205 colon,> 100 µM
same,TGI,MOLT-4 leukemia,> 100 µM
same,TGI,NCI-H522 lung,> 100 µM
same,TGI,NCI-H460 lung,> 100 µM
same,TGI,HCT-116 colon,> 100 µM
same,TGI,OVCAR-8 ovarian,> 100 µM
same,TGI,A549 NSCLC,> 100 µM
same,TGI,M14 melanoma,> 100 µM
same,TGI,NCI-H23 lung,> 100 µM
same,TGI,SW-620 colon,> 100 µM
same,TGI,786-0 renal,> 100 µM
CCOc1cc(NC(C)=O)ccc1C(=O)NNS(=O)(=O)c1ccc(Cl)cc1Cl,TGI,HCT-15 colon,> 50 µM
same,TGI,HOP-92 NSCLC,> 50 µM
same,TGI,SK-MEL-5 melanoma,> 50 µM
same,TGI,SK-OV-3 ovarian,> 50 µM
same,TGI,SNB-75 CNS,> 50 µM
same,TGI,RPMI-8226 leukemia,26.6 µM
same,TGI,IGROV1 ovarian,> 50 µM
same,TGI,HOP-62 NSCLC,> 50 µM
same,TGI,MDA-N,23.1 µM
same,TGI,CAKI-1 renal,> 50 µM
same,TGI,HCC-2998 colon,> 50 µM
same,TGI,T-47D breast,> 50 µM
same,TGI,SK-MEL-28 melanoma,> 50 µM
same,TGI,HL-60(TB) leukemia,> 50 µM
same,TGI,SNB-19 CNS,> 50 µM
same,TGI,OVCAR-3 ovarian,> 50 µM
same,TGI,SN12C renal,> 50 µM
same,TGI,UACC-62 melanoma,> 50 µM
same,TGI,SF-268 CNS,> 50 µM
same,TGI,BT-549 breast,> 50 µM
same,TGI,NCI-H226 lung,> 50 µM
same,TGI,KM12 colon,> 50 µM
same,TGI,UO-31 renal,> 50 µM
same,TGI,PC-3 prostate,> 50 µM
same,TGI,MDA-MB-435,45.1 µM
same,TGI,EKVX NSCLC,> 50 µM
same,TGI,ACHN renal,> 50 µM
same,TGI,SF-295 CNS,> 50 µM
same,TGI,NCI/ADR-RES ovarian,> 50 µM
same,TGI,DU-145 prostate,> 50 µM
same,TGI,MCF7 breast,> 50 µM
same,TGI,CCRF-CEM leukemia,> 50 µM
same,TGI,UACC-257 melanoma,> 50 µM
same,TGI,SK-MEL-2 melanoma,> 50 µM
same,TGI,OVCAR-5 ovarian,> 50 µM
same,TGI,RXF 393 renal,> 50 µM
same,TGI,OVCAR-4 ovarian,> 50 µM
same,TGI,LOX IMVI melanoma,> 50 µM
same,TGI,HS 578T breast,> 50 µM
same,TGI,HT29 colon,> 50 µM
same,TGI,K-562 leukemia,21.4 µM
same,TGI,MALME-3M melanoma,> 50 µM
same,TGI,SF-539 CNS,> 50 µM
same,TGI,A498 renal,> 50 µM
same,TGI,SR leukemia,> 50 µM
same,TGI,COLO 205 colon,> 50 µM
same,TGI,MOLT-4 leukemia,22 µM
same,TGI,NCI-H522 lung,> 50 µM
same,TGI,NCI-H460 lung,> 50 µM
same,TGI,HCT-116 colon,> 50 µM
same,TGI,OVCAR-8 ovarian,> 50 µM
same,TGI,A549 NSCLC,> 50 µM
same,TGI,M14 melanoma,> 50 µM
same,TGI,NCI-H23 lung,> 50 µM
same,TGI,SW-620 colon,> 50 µM
same,TGI,786-0 renal,> 50 µM
